# Results published in patent US10307418B2, “Azole pharmaceutical formulations for parenteral administration and methods for preparing and using the same as treatment of diseases sensitive to azole compounds” (Platform Brightworks Two, Ltd., priority 2010, dated 2019).
# Read-outs that look alike come from different tables or passages of the source.
# How the values were obtained:
# [1] = Maximum solubility of ITZA and azole analogues in solvents (HPLC); format: physicochemical; conditions: for solubility thermodynamic at 1 h: within 1 hour at RT, read-out: Maximum equilibrium solubility
# Description: ITZA and its analogues were dissolved in various solvents incubated at 37° C. for 30 minutes, cooled down to room temperature, centrifuged at 14,000 rpm for 1 min. The supernatant was analyzed using HPLC to determine the maximum solubility of ITZA and its azole analogues.
# In a first step the maximum ITZA solubility in various single solvents was determined. To this end, ITZA and its analogs were dissolved in various solvents, incubated at 37° C. for 30 minutes, cooled down to room temperature, centrifuged at 14,000 rpm for 1 min. The supernatant was analyzed using HPLC to determine the maximum solubility of the respective agent.
# The solubility of ITZA was determined in several individual vehicles. Briefly, a known amount of ITZA drug, formulated as a powder (Sigma Inc., St Louis, Mo.), was equilibrated in the respective solvent at RT over 1-4 hours. An aliquot was removed, filtered, and prepared for HPLC to determine maximum solubility at room temperature. Based on the ITZA solubility in each vehicle, different solvents were mixed according to the cosolvency principle in an attempt to arrive at an enhanced stable solubility. […] The stock formulation was then diluted with a final diluent, i.e. NS or D5W or DlOW, to yield a stable use-formulation. The desired range of the final use-formulation was between 1 and 5 mg/mL, as it would result in a final volume that could be safely and conveniently infused intravascularly.
# An excess of ITZA as a powder was added to a multitude of chemical solvents (Table 1) at RT. Each mixture was intermittently vortexed, placed in a dark environment and checked visually for up to 4 hours for evidence of solubilization. Following centrifugation to remove solid particles, small samples were withdrawn after consecutive time intervals and the ITZA concentration was determined by HPLC as described.
# [2] = Stability of ITZA/POSA in solvent vehicles (HPLC); format: physicochemical
# Description: The ITZA in solvent H3 was incubated in sealed tubes. […] For both short-term and long-term stability studies, triplicate samples at various time points were analyzed quantitatively by HPLC after appropriate dilutions. In the next step the stability of ITZA (at approximately 4 mg/mL) in a preferred composite solvent at a clinically relevant stock concentration by itself, and after dilution with a similar volume of a clinically acceptable infusion fluid, was determined at room temperature. ITZA was dissolved at a final stock concentration of 2-6 mg/mL in benzyl alcohol with acidified EtOH/PEG-400 (prototype ITZA stock solvent vehicle) and incubated at RT and at 40° C. The resulting ITZA concentrations were measured by HPLC in samples taken immediately after solubilization, then hourly for 8 hours, and then at gradually increasing time intervals for up to several days (weeks), depending on the initial rate of solubilization/degradation in the respective solvent system.
# [3] = tested on: Aspergillus fumigatus (Clinical Lab isolate); assay: Mold susceptibility test, MIC; format: cell-based; conditions: tested range 75 μg/mL to 0.07 μg/mL, read out at 48 hrs
# Description: Two hyaline molds were tested with a standard read out at 48 hrs:
# Tested drug range: 75 μg/mL to 0.07 μg/mL
# Briefly, susceptibility tests were set-up using a standardized methodology (CLSI […] standard). Drugs were diluted into RPMI-Mops medium (Yeast One Broth (Sensititer, product Y3462, Trek Diagnostic Systems, Cleveland, Ohio) Sensititer Lot number 151416SA-expiration date 2011-01). Two different strains of yeast were tested, the standardized evaluation/read out was performed at 24 hours after the start of each culture. The tests were repeated twice and all MIC (minimum inhibitory concentration) values are reported as an average of the three experiments.
# [4] = tested on: Zygomycete (Clinical Lab isolate, MDACC); assay: Extended mold testing, MIC (CLSI M38A); format: cell-based; conditions: H3 final use-formulation, range 75 μg/mL to 0.07 μg/mL, 48 hr, read-out: MIC
# Description: To further determine the antifungal activity of the compounds in the new formulation systems we investigated the efficacy of the various agents against additional strains of mucor and Aspergillus (9/-16-9/20/2010) (The Rhizomucor was a clinical isolate from a patient isolate) and the Aspergillus fumigatus (ATCC strain 90906) used was a repeat from the previously described experiment. Again, the susceptibility tests were set-up using the standardized test method (CLSI M38A). The used drugs were provided in the described H3 final use-formulation that has been previously described. All drugs were diluted in RPMI-Mops medium (YeastOne, Sensititer Lot 151416SA, expiration date January 2011).
# As before two different molds were tested with a standard read out at 48 hr: • Drug dilution range 75 μg/mL to 0.07 μg/mL. • Aspergillus fumigatus (ATCC strain 90906) Zygomycete (Clinical Lab isolate, MDACC)
# in vivo = conditions: both, Swiss Webster, mouse, plasma, iv, 5 mg/kg
# Description: Swiss Webster mice were used for pharmacokinetic studies of ITZA and its analogs. The dilation of the vein was accomplished by warming up the mice using a heat lamp. […] Mice were allowed to recover and blood samples were obtained through cardiac puncture under general anesthesia with Isoflurane/oxygen by vaporizer at various time points. Plasma was obtained by centrifugation of blood sample at 3,200 rpm for 5 min. at 4° C. Plasma proteins were precipitated by adding acetonitrile (twice the volume of plasma). The mixture was vortexed for 30 seconds and centrifuged for 5 min. at 14,000 rpm. The supernatant was saved and was injected into the HPLC to determine the respective drug concentrations.
# Unless specified, the analogous experiments were performed using POSA as an alternative to ITZA; Swiss Webster mice of both sexes with a body weight of 25-30 g were used for the in vivo pharmacology experiments (Harlan-Sprague-Dawley, Houston, Tex.). The animals were allowed a minimum of 7 days after arrival to accommodate to the new environment and allowed free access to commercial feed and tap water prior to and during the experimentation period. The animals were housed in an Association for the Assessment and Accreditation of Laboratory Animal Care International (AAALAC)-approved facility that meets the requirements of the USDA, NIH, and DHHS.
# The ITZA dose of 5 mg/kg BW was determined to be a suitable test dose that could be administered to the mice as a slow (3-4 min) IV bolus injection without requiring sedation, but could be performed with only minimal physical restraint of the animals in a standard funnel-type cage.
# The ITZA was formulated in the H3 solvent system described above as the preferred solvent to a stock concentration of 4-5 mg/mL and then diluted with NS (ratio 1:1) so the intended dose (5.0 mg/kg BW) could be injected in a tail vein in a total volume of approximately 100 μL. […] No sedative premedication was used for the mice in this experiment to avoid the possible induction of microsomal liver enzymes that could modify ITZA metabolism. Thus, the animals were unanesthetized, being only physically restrained during and immediately following the drug injection.
# Blood samples (0.5-1.0 mL) were drawn through cardiac puncture into heparinized tubes at selected time points prior to the drug infusion (“blank”), and from 5 min to 1 hour after drug injection for determination of ITZA concentrations, and for 5 min to about 7 hrs in the POSA experiment. The mice were exposed to 2% -4% isoflurane for general anesthesia. Blood samples were obtained through cardiac puncture and immediately deposited in heparinized microcentrifuge tubes.
smiles,measurement,setting,value
"CCC(C)n1ncn(-c2ccc(N3CCN(c4ccc(OCC5COC(Cn6cncn6)(c6ccc(Cl)cc6Cl)O5)cc4)CC3)cc2)c1=O (centres unmarked) [ITZA, itraconazole]",solubility,"[1]; 2M citric acid, aqueous buffer, thermodynamic from solid, in 2M citric acid, read-out: Maximum solubility",3220 µg/mL
same,solubility,"[1]; 6N HCl, aqueous buffer, thermodynamic from solid, in 6N HCl, read-out: Maximum solubility",7410 µg/mL
same,solubility,"[1]; 25% acetic acid, aqueous with cosolvent or surfactant or cyclodextrin, thermodynamic from solid, in 25% Acetic acid, read-out: Maximum solubility",300 µg/mL
same,solubility,"[1]; 50% acetic acid, aqueous with cosolvent or surfactant or cyclodextrin, thermodynamic from solid, in 50% Acetic acid, read-out: Maximum solubility",12900 µg/mL
same,solubility,"[1]; Intralipid, oil or lipid, thermodynamic from solid, in Intralipid, read-out: Maximum solubility",150 µg/mL
same,solubility,"[1]; PEG 200, organic solvent or mixture, thermodynamic from solid, in PEG 200, read-out: Maximum solubility",1450 µg/mL
same,solubility,"[1]; PEG 300, organic solvent or mixture, thermodynamic from solid, in PEG 300, read-out: Maximum solubility",1810 µg/mL
same,solubility,"[1]; PEG 400, organic solvent or mixture, thermodynamic from solid, in PEG 400, read-out: Maximum solubility",2510 µg/mL
same,solubility,"[1]; acetic acid, organic solvent or mixture, thermodynamic from solid, in Acetic acid, read-out: Maximum solubility",144000 µg/mL
same,solubility,"[1]; benzyl alcohol, organic solvent or mixture, thermodynamic from solid, in Benzyl alcohol, read-out: Maximum solubility",> 128000 µg/mL
same,Solubility (in words),"[1]; diluted acetic acid, H2O, Normal saline, 5% Dextrose, Polyoxyethylated castor oil, Propylene glycol, 2 M citric acid, Ethanol, HCl, PEG400, Intralipid",insignificant solubility
same,solubility,"[1]; ethanol, organic solvent or mixture, thermodynamic from solid, in Ethanol, read-out: Maximum solubility",410 µg/mL
same,Maximum solubility,[1]; in 10% Acetic acid,860 µg/mL
same,Maximum solubility,[1]; in Polyoxyethylated castor oil,890 µg/mL
same,solubility,"[1]; normal saline, saline or isotonic, thermodynamic from solid, in Normal saline, read-out: Maximum solubility",480 µg/mL
same,solubility,"[1]; organic solvent or mixture, thermodynamic from solid, benzyl alcohol containing solvent H3, room temp, read-out: Maximum solubility",~31400 µg/mL
same,solubility thermodynamic at 1 h,"[1]; organic solvent or mixture, thermodynamic from solid, Benzyl alcohol",> 100000 µg/mL
same,solubility thermodynamic at 1 h,"[1]; organic solvent or mixture, thermodynamic from solid, pure (glacial) acetic acid",> 100000 µg/mL
same,solubility,"[1]; propylene glycol, organic solvent or mixture, thermodynamic from solid, in Propylene glycol, read-out: Maximum solubility",140 µg/mL
same,solubility,"[1]; solvent B (with Tween 80), aqueous with cosolvent or surfactant or cyclodextrin, thermodynamic from solid, solvent B (with Tween 80), read-out: Maximum solubility",29000 µg/mL
same,solubility at 30 min,"[1]; solvent H3D (no benzyl alcohol), organic solvent or mixture, thermodynamic from solid, solvent H3D (no benzyl alcohol), single determination, read-out: Azole solubility, [Drug] mg/mL",19.1 mg/mL
same,solubility at 30 min,"[1]; solvent H3D (no benzyl alcohol), organic solvent or mixture, thermodynamic from solid, solvent H3D (no benzyl alcohol), read-out: Azole solubility, Average mg/mL",19 mg/mL
same,"Azole solubility, [Drug] mg/mL","[1]; solvent H3D (no benzyl alcohol), single determination",18.9 mg/mL
same,solubility at 30 min,"[1]; solvent H3G (no benzyl alcohol), organic solvent or mixture, thermodynamic from solid, solvent H3G (no benzyl alcohol), single determination, read-out: Azole solubility, [Drug] mg/mL",19.2 mg/mL
same,solubility at 30 min,"[1]; solvent H3G (no benzyl alcohol), organic solvent or mixture, thermodynamic from solid, solvent H3G (no benzyl alcohol), read-out: Azole solubility, Average mg/mL",19.3 mg/mL
same,"Azole solubility, [Drug] mg/mL","[1]; solvent H3G (no benzyl alcohol), single determination",19.4 mg/mL
same,solubility,"[1]; solvent J1, organic solvent or mixture, thermodynamic from solid, solvent J1, read-out: Solubility",18100 µg/mL
same,solubility,[1]; solvent J2,15990 µg/mL
same,solubility,[1]; solvent J3,10110 µg/mL
same,solubility,"[1]; solvent J4, organic solvent or mixture, thermodynamic from solid, solvent J4, read-out: Solubility",6090 µg/mL
same,solubility,"[1]; solvent J5, organic solvent or mixture, thermodynamic from solid, solvent J5, read-out: Solubility",3540 µg/mL
same,solubility,"[1]; solvent K, organic solvent or mixture, thermodynamic from solid, solvent K, RT, read-out: Maximum solubility",11100 µg/mL
same,Maximum solubility,[1]; solvent L,5000 µg/mL
same,Stability (% remaining),"[2]; 2 mg/mL, normal saline as final dilution solution, at least 24 hours at RT",more than 90%
same,stability of ITZA,"[2]; H3D/5% dex., day 3",108%
same,stability of ITZA,"[2]; H3D/sal., day 4",102%
same,stability of ITZA,"[2]; H3G/10% dex., day 1",102%
same,Stability (%),"[2]; parent solvent H3, approximately 4 mg/mL, room temperature, 48 hrs",96%
same,Stability (%),"[2]; parent solvent H3, approximately 4 mg/mL, room temperature, 7 days (1 w)",91%
same,Stability (%),"[2]; parent solvent H3, approximately 4 mg/mL, room temperature, 9 days",84%
same,Stability (%),"[2]; parent solvent H3, approximately 4 mg/mL, room temperature, 18 days",80%
same,Stability (%),"[2]; solvent H3, approximately 4 mg/mL, 40° C., 72 hr",76%
same,Stability (%),"[2]; solvent H3, approximately 4 mg/mL, 40° C., 10 days",59%
same,Stability (%),"[2]; solvent H3, approximately 4 mg/mL, 40° C., 11 days",58%
same,Stability (%),"[2]; solvent H3, approximately 4 mg/mL, 40° C., time 0",100%
same,Stability (%),"[2]; solvent H3/normal saline (1:1), approximately 2.0 mg/mL, RT, 6 hrs",101%
same,MIC,"[3]; Aspergillus fumigatus, 48 h, read-out: MIC",0.6 µg/mL
same,MIC,[3],0.3 µg/mL
same,MIC,[4],2.5 µg/mL
same,half-life,in vivo,~30 min
